Columns and labels:
HCT-116 = assay: In vitro anti-proliferative activity, MTT assay, HCT-116; format: cell-based, human; details: for IC50: Homo sapiens, HCT-116, MTT, 24 h treatment, mean ± S.D. of three separate experiments
Experimental: (§1) The cells were obtained from ATCC (American Type Culture Collection) via the Holding company for biological products and vaccines (VACSERA) (Cairo, Egypt). […] After incubation period, the cell lines were treated with different concentration of the synthesized compounds and incubated for 24 h. After treatment by 24 h, 20 μL of MTT solution (5 mg mL^−1) was added and incubated for 4 h. Dimethyl sulfoxide (100 μL) was added into each well to dissolve the formed purple formazan. […] The relative cell viability in percentage was calculated as (A570 of treated samples/A570 of untreated sample) X 100.

HepG-2 = assay: In vitro anti-proliferative activity, MTT assay, HepG-2; format: cell-based, human; details: for IC50: Homo sapiens, HepG2, MTT, 24 h treatment, mean ± S.D. of three separate experiments
Experimental: as §1

MCF-7 = assay: In vitro anti-proliferative activity, MTT assay, MCF-7; format: cell-based, human; details: for IC50: Homo sapiens, MCF7, MTT, 24 h treatment, mean ± S.D. of three separate experiments
Experimental: as §1

purified bovine tubulin = biological target: T1, purified bovine tubulin (Bos taurus, UniProt P81947+Q6B856); assay: In vitro tubulin polymerization assay; format: biochemical; details: purified bovine tubulin 10 μM, 37 °C; read-out: IC50 Tubulin polymerization inhibition
T1 construct: purified bovine tubulin (10 μM); from tissue; host or cells: bovine
T1 sequence (Q6B856 whole entry): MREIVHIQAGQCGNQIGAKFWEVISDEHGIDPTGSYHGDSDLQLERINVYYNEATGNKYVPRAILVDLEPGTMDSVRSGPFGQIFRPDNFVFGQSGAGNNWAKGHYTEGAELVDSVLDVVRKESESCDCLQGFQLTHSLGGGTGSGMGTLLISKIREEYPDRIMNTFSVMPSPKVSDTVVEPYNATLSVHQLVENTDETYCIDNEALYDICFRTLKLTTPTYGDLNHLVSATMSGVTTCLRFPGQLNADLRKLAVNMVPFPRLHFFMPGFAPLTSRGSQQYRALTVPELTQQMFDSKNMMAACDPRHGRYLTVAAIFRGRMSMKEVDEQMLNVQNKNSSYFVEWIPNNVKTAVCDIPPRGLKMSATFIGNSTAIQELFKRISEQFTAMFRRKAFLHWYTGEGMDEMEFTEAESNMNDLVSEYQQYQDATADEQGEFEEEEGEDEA
T1 sequence (P81947 whole entry): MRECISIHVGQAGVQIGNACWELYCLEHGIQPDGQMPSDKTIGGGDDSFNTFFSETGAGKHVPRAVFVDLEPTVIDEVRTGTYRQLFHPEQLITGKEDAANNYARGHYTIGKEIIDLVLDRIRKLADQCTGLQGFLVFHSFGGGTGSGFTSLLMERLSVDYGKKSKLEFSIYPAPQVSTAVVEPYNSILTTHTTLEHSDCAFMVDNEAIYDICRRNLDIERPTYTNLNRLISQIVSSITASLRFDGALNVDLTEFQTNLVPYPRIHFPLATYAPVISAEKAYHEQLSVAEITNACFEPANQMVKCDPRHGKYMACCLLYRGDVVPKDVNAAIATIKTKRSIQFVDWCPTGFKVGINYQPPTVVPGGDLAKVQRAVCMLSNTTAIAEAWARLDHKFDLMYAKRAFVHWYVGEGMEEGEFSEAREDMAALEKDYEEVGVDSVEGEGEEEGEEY
Experimental: The inhibition assay on microtubule polymerization was evaluated turbidimetrically using a fluorescent plate reader.[52]

Row | Structure (SMILES) | IC50 (HCT-116) [µM] | IC50 (MCF-7) [µM] | IC50 (purified bovine tubulin) [µM] | melting point [°C] | IC50 (HepG-2) [µM] | times as active as colchicine against HCT-116 (HCT-116; ratio of IC50 values) [times] | times as active as colchicine against HepG-2 (HepG-2; ratio of IC50 values) [times] | times as active as colchicine against MCF-7 (MCF-7; ratio of IC50 values) [times]
1 | C/C(=N\NC(N)=S)c1ccc(C)cc1 [Compound 3a, (E)-2-(1-(p-Tolyl)ethylidene)hydrazine-1-carbothioamide] | > 50 | > 50 | – | – | > 50 | – | – | –
2 | COc1ccc(/C(C)=N/NC(N)=S)cc1OC [Compound 3b, (E)-2-(1-(3,4-Dimethoxyphenyl)ethylidene)hydrazine-1-carbothioamide] | 17.3 ± 1.4 | 22.4 ± 1 | 0.0445 ± 0.0023 | 205 to 207 | 12.9 ± 0.4 | – | – | –
3 | COc1ccc(/C=C2/N=C(N/N=C(\C)c3ccc(C)cc3)SC2=O)cc1 [Compound 4a, 4-((E)-4-Methoxybenzylidene)-2-(2-((E)-1-(p-tolyl)ethylidene)hydrazinyl) thiazol-5(4H)-one] | 45.6 ± 3.5 | > 50 | – | 248 to 250 | 34 ± 30.9 | – | – | –
4 | C/C(=N\NC1=N/C(=C/c2ccc(Cl)cc2)C(=O)S1)c1ccc(C)cc1 [Compound 4b, 4-((E)-4-Chlorobenzylidene)-2-(2-((E)-1-(p-tolyl)ethylidene)hydrazinyl) thiazol-5(4H)-one] | 18.2 ± 1.3 | 22.4 ± 1 | – | 266 to 268 | 11.14 ± 0.1 | – | – | –
5 | C/C(=N\NC1=N/C(=C/c2ccc(O)cc2)C(=O)S1)c1ccc(C)cc1 [Compound 4c, 4-((E)-4-Hydroxybenzylidene)-2-(2-((E)-1-(p-tolyl)ethylidene)hydrazinyl) thiazol-5(4H)-one] | 38.5 ± 2.5 | 41.8 ± 1.2 | – | 272 to 274 | 35.2 ± 0.8 | – | – | –
6 | C/C(=N\NC1=N/C(=C/c2ccc(Cl)cc2Cl)C(=O)S1)c1ccc(C)cc1 [Compound 4d, 4-((E)-2,4-Dichlorobenzylidene)-2-(2-((E)-1-(p-tolyl)ethylidene)hydrazinyl) thiazol-5(4H)-one] | 10.6 ± 0.4 | 14.8 ± 0.6 | 0.0197 ± 0.0008 | > 300 | 6.6 ± 0.1 | – | – | –
7 | COc1ccc(/C=C2/N=C(N/N=C(\C)c3ccc(C)cc3)SC2=O)cc1OC [Compound 4e, 4-((E)-3,4-Dimethoxybenzylidene)-2-(2-((E)-1-(p-tolyl)ethylidene)hydrazinyl) thiazol-5(4H)-one] | 13 ± 0.2 | 18.2 ± 0.5 | 0.0474 ± 0.0018 | 254 to 256 | 12.44 ± 0.1 | – | – | –
8 | C/C(=N\NC1=N/C(=C/c2ccc(O)cc2O)C(=O)S1)c1ccc(C)cc1 [Compound 4f, 4-((E)-2,4-Dihydroxybenzylidene)-2-(2-((E)-1-(p-tolyl)ethylidene)hydrazinyl) thiazol-5(4H)-one] | 5.66 ± 0.1 | 4.46 ± 0.1 | 0.00933 ± 0.0003 | – | 2.89 ± 0.1 | 1.64 | 2.57 | 2.34
9 | COc1ccc(/C=C2/N=C(N/N=C(\C)c3ccc(OC)c(OC)c3)SC2=O)cc1 [Compound 4g, 2-(2-((E)-1-(3,4-Dimethoxyphenyl)ethylidene)hydrazinyl)-4-((E)-4-methoxybenzylidene) thiazol-5(4H)-one] | 12.9 ± 0.6 | 17.4 ± 0.5 | – | 240 to 242 | 8.68 ± 0.1 | – | – | –
10 | COc1ccc(/C(C)=N/NC2=N/C(=C/c3ccc(O)cc3)C(=O)S2)cc1OC [Compound 4h, 2-(2-((E)-1-(3,4-Dimethoxyphenyl)ethylidene)hydrazinyl)-4-((E)-4-hydroxybenzylidene)thiazol-5(4H)-one] | 41.8 ± 1.6 | 48.8 ± 1.4 | – | 290 to 292 | 37.5 ± 0.8 | – | – | –
11 | COc1ccc(/C(C)=N/NC2=N/C(=C/c3ccc(Cl)cc3Cl)C(=O)S2)cc1OC [Compound 4i, 4-((E)-2,4-Dichlorobenzylidene)-2-(2-((E)-1-(3,4-dimethoxyphenyl)ethylid-ene)hydrazineyl) thiazol-5(4H)-one] | 40.5 ± 1.1 | 40.1 ± 1.9 | – | > 300 | 31.9 ± 0.8 | – | – | –
12 | COc1ccc(/C=C2/N=C(N/N=C(\C)c3ccc(OC)c(OC)c3)SC2=O)cc1OC [Compound 4j, 4-((E)-3,4-Dimethoxybenzylidene)-2-(2-((E)-1-(3,4-dimethoxyphenyl)ethylid-ene)hydrazinyl)thiazol-5(4H)-one] | 22.9 ± 0.7 | 43.3 ± 1.8 | – | 232 to 236 | 32.6 ± 0.9 | – | – | –
13 | COc1ccc(/C(C)=N/NC2=N/C(=C/c3ccc(O)cc3O)C(=O)S2)cc1OC [Compound 4k, 4-((E)-2,4-Dihydroxybenzylidene)-2-(2-((E)-1-(3,4-dimethoxyphenyl)ethylid-ene)hydrazinyl)thiazol-5(4H)-one] | 11.7 ± 0.3 | 13.9 ± 0.5 | 0.05001 ± 0.0004 | > 300 | 12.2 ± 0.4 | – | – | –

Second part, led by results:

Row | IC50 (HCT-116) [µM] | IC50 (MCF-7) [µM] | IC50 (purified bovine tubulin) [µM] | melting point [°C] | Structure (SMILES) | IC50 (HepG-2) [µM] | times as active as colchicine against HCT-116 (HCT-116; ratio of IC50 values) [times] | times as active as colchicine against HepG-2 (HepG-2; ratio of IC50 values) [times] | times as active as colchicine against MCF-7 (MCF-7; ratio of IC50 values) [times]
14 | 18.4 ± 0.2 | 21.8 ± 1 | – | 208 to 210 | COc1ccc(/C(C)=N/NC2=N/C(=C/c3cccs3)C(=O)S2)cc1OC [Compound 5b, (E)-2-(2-((E)-1-(3,4-Dimethoxyphenyl)ethylidene)hydrazinyl)-4-(thiophen-2-ylmethylene)thiazol-5(4H)-one] | 17.5 ± 0.7 | – | – | –
15 | > 50 | > 50 | – | – | C/C(=N\NC(N)=S)c1cccs1 [Compound 7a, (E)-2-(1-(Thiophen-2-yl)ethylidene)hydrazine-1-carbothioamide] | > 50 | – | – | –
16 | > 50 | > 50 | – | – | C/C(=N\NC(N)=S)c1ccco1 [Compound 7b, (E)-2-(1-(Furan-2-yl)ethylidene)hydrazine-1-carbothioamide] | > 50 | – | – | –
17 | 35.5 ± 2 | 32.1 ± 1.2 | – | 243 to 245 | COc1ccc(/C=C2/N=C(N/N=C(\C)c3cccs3)SC2=O)cc1 [Compound 8a, 4-((E)-4-Methoxybenzylidene)-2-(2-((E)-1-(thiophen-2-yl)ethylidene)hydra-zinyl)thiazol-5(4H)-one] | 26.6 ± 0.9 | – | – | –
18 | 18.7 ± 0.6 | 18.2 ± 0.6 | – | 252 to 254 | C/C(=N\NC1=N/C(=C/c2ccc(Cl)cc2)C(=O)S1)c1cccs1 [Compound 8b, 4-((E)-4-Chlorobenzylidene)-2-(2-((E)-1-(thiophen-2-yl)ethylidene)hydra-zinyl)thiazol-5(4H)-one] | 19.5 ± 0.7 | – | – | –
19 | 17.2 ± 0.9 | 19 ± 0.5 | – | 178 to 180 | C/C(=N\NC1=N/C(=C/c2ccc(O)cc2)C(=O)S1)c1cccs1 [Compound 8c, 4-((E)-4-Hydroxybenzylidene)-2-(2-((E)-1-(thiophen-2-yl)ethylidene)hydra-zinyl)thiazol-5(4H)-one] | 12.2 ± 0.3 | – | – | –
20 | 48.6 ± 1.8 | > 50 | – | 274 to 276 | C/C(=N\NC1=N/C(=C/c2ccc(Cl)cc2Cl)C(=O)S1)c1cccs1 [Compound 8d, 4-((E)-2,4-Dichlorobenzylidene)-2-(2-((E)-1-(thiophen-2-yl)ethylidene) hydrazinyl)thiazol-5(4H)-one] | 45.3 ± 1.2 | – | – | –
21 | 34.7 ± 1 | 25.8 ± 0.6 | – | 248 to 250 | COc1ccc(/C=C2/N=C(N/N=C(\C)c3cccs3)SC2=O)cc1OC [Compound 8e, 4-((E)-3,4-Dimethoxybenzylidene)-2-(2-((E)-1-(thiophen-2-yl)ethylidene) hydrazinyl) thiazol-5(4H)-one] | 27.8 ± 0.5 | – | – | –
22 | 8.96 ± 0.2 | 7.65 ± 0.2 | 0.0116 ± 0.0002 | > 300 | C/C(=N\NC1=N/C(=C/c2ccc(O)cc2O)C(=O)S1)c1cccs1 [Compound 8f, 4-((E)-2,4-Dihydroxybenzylidene)-2-(2-((E)-1-(thiophen-2-yl)ethylidene) hydrazinyl) thiazol-5(4H)-one] | 3.23 ± 0.1 | – | – | –
23 | 6.59 ± 0.1 | 9.29 ± 0.1 | 0.0142 ± 0.0003 | 288 to 290 | COc1ccc(/C=C2/N=C(N/N=C(\C)c3ccco3)SC2=O)cc1 [Compound 8g, 2-(2-((E)-1-(Furan-2-yl)ethylidene)hydrazinyl)-4-((E)-4-methoxybenzylid-ene)thiazol-5(4H)-one] | 4.69 ± 0.1 | – | – | –
24 | 12 ± 0.3 | 20 ± 0.4 | 0.0384 ± 0.0014 | 272 to 274 | C/C(=N\NC1=N/C(=C/c2ccc(Cl)cc2)C(=O)S1)c1ccco1 [Compound 8h, 4-((E)-4-Chlorobenzylidene)-2-(2-((E)-1-(furan-2-yl)ethylidene)hydra-zinyl)thiazol-5(4H)-one] | 10.3 ± 0.6 | – | – | –
25 | > 50 | > 50 | – | 264 to 266 | C/C(=N\NC1=N/C(=C/c2ccc(Cl)cc2Cl)C(=O)S1)c1ccco1 [Compound 8j, 4-((E)-2,4-Dichlorobenzylidene)-2-(2-((E)-1-(furan-2-yl)ethylidene) hydrazinyl) thiazol-5(4H)-one] | > 50 | – | – | –
26 | > 50 | > 50 | – | 203 to 205 | C/C(=N\NC1=N/C(=C/c2cccs2)C(=O)S1)c1ccco1 [Compound 9b, (E)-2-(2-((E)-1-(Furan-2-yl)ethylidene)hydrazinyl)-4-(thiophen-2-ylmethylene) thiazol-5(4H)-one] | 45.1 ± 0.7 | – | – | –
